Results on 31 compounds are retold here after patent publication US11358962B2, “2-hetaryl imidazol[1,2-a]pyridine derivatives” (Hoffmann-La Roche Inc., priority 2013, dated 2022).

The structures appear in SMILES notation.

The test system of the test is native tau aggregates. Put plainly: TAU radioligand in vitro displacement assay ([3H]T808, autoradiography on human AD brain sections). It counts as binding. The settings on record: compound 10 nM, radioligand [3H]T808 10 nM. An excerpt:
TAU Radioligand-In-Vitro Displacement Assay
This in vitro binding assay assesses the affinity of compounds for native tau aggregates.
AD human brains are purchased from Banner Sun Health Research Institute (Sun City, Ariz., USA). Pathological diagnosis of AD is made according to standard NIA-Reagan Institute criteria based on neuropathological data. The radioligand [^3H]T808 was synthesized in-house ([^3H]-2-[4-(2-Fluoro-ethyl)-piperidin-1-yl]-benzo[4,5]imidazo[1,2-a]pyrimidine, radiochemical purity 99.0%). As a reference cold T808 is used (2-[4-(2-Fluoro-ethyl)-piperidin-1-yl]-benzo[4,5]imidazo[1,2-a]pyrimidine). For the autoradiography FujiFilm Imaging Plates (BAS-IP TR 2025) are exposed to the sections and read with a FujiFilm IP reader (BAS-5000).
Ten μm thick human AD brain sections are generated with a cryostat (Leica CM3050) at −17° C. chamber temperature and −15° C. object temperature. Sections are transferred to Histobond+ microscope slides (Marienfeld Laboratory Glasware). After drying for 3 hours at room temperature the sections are stored at −20° C. The sections are incubated with the radioligand (10 nM) and the respective cold compound (at various concentrations) in 50 mM Tris buffer, pH 7.4 at room temperature for 30 min. After washing 3× 10 min at 4° C. in 50 mM Tris buffer, pH 7.4 and 3 quick dips in H2O dist. at 4° C. the sections are dried at 4° C. for 3 h. The sections are placed in a FujiFilm Cassette (BAS 2025), exposed with an Imaging Plate for five days and afterwards scanned with a resolution of […].
The signal intensity (Dens−PSL/mm2) in the region of interest (ROI) of the autoradiogram is quantified with the software MCID analysis (version 7.0, Imaging Research Inc.). The specific binding (SB) of [^3H]T808 binding in absence or in presence of a compound is calculated by subtracting the non-specific binding signal in the white matter, thus yielding SB[3H]T808 only and SBcompound. The % displacement by the various compounds is calculated as following: % displacement=100−(SBcompound/SB[3H]T808 only)*100. Validation Data
In each experiment cold T808 is used as a positive internal control. Co-incubation of equimolar amounts of hot and cold T808 is expected to reduce specific binding by approximately 50%.
Consider `CNc1ccn2cc(-c3ccc4c(c3)OCO4)nc2c1` [Example 37, (2-Benzo[1,3]dioxol-5-yl-imidazo[1,2-a]pyridin-7-yl)-methyl-amine], for which the “% displacement of [3H]T808 (10 nM) at 10 nM” value (“% displacement of [3H]T808” for short) turned out to be 60%.
The same measure for `CN(C)c1ccn2cc(-c3ccc4c(c3)OCO4)nc2c1` [Example 38, (2-Benzo[1,3]dioxol-5-yl-imidazo[1,2-a]pyridin-7-yl)-dimethyl-amine]: 52%; for `CN(CCF)c1ccn2cc(-c3ccc4c(c3)OCO4)nc2c1` [Example 39, (2-Benzo[1,3]dioxol-5-yl-imidazo[1,2-a]pyridin-7-yl)-(2-fluoro-ethyl)-methyl-amine]: 42%; for `Oc1ccc(-c2cn3ccc(N4CCC4)cc3n2)cc1` [Example 40, 4-(7-Azetidin-1-yl-imidazo[1,2-a]pyridin-2-yl)-phenol]: 37%.
The same measure for `CN(C)c1ccc(-c2cn3ccc(N4CCC(F)CC4)cc3n2)cc1` [Example 41, {4-[7-(4-Fluoro-piperidin-1-yl)-imidazo[1,2-a]pyridin-2-yl]-phenyl}-dimethyl-amine]: 18%; for `F[C@@H]1CCN(c2ccn3cc(-c4ccccc4)nc3c2)C1` [Example 42, 7-((R)-3-Fluoro-pyrrolidin-1-yl)-2-phenyl-imidazo[1,2-a]pyridine]: 23%.
The same measure for `CO[C@@H]1CCN(c2ccn3cc(-c4ccccc4)nc3c2)C1` [Example 43, 7-((R)-3-Methoxy-pyrrolidin-1-yl)-2-phenyl-imidazo[1,2-a]pyridine]: 15%; for `CNc1ccn2cc(-c3cccc(OC)c3)nc2c1` [Example 44, [2-(3-Methoxy-phenyl)-imidazo[1,2-a]pyridin-7-yl]-methyl-amine]: 29%.
Consider `CNc1ccn2cc(-c3ccc(OCF)cc3)nc2c1` [Example 45, [2-(4-Fluoromethoxy-phenyl)-imidazo[1,2-a]pyridin-7-yl]-methyl-amine], for which the “% displacement of [3H]T808” value was found to be 45%.
As for `Cc1ccc(-c2cn3ccc(NCCF)cc3n2)cc1` [Example 46, (2-Fluoro-ethyl)-(2-p-tolyl-imidazo[1,2-a]pyridin-7-yl)-amine], the figure is 27%.
The same measure for `Cc1cccc(-c2cn3ccc(NCCF)cc3n2)c1` [Example 47, (2-Fluoro-ethyl)-(2-m-tolyl-imidazo[1,2-a]pyridin-7-yl)-amine]: 36%.
Regarding `CO[C@H]1CCN(c2ccn3cc(-c4cccc(C)c4)nc3c2)C1` [Example 48, 7-((S)-3-Methoxy-pyrrolidin-1-yl)-2-m-tolyl-imidazo[1,2-a]pyridine], the “% displacement of [3H]T808” value is 8%.
The same measure for `FCOc1ccc(-c2cn3ccc(N4CCOCC4)cc3n2)cc1` [Example 49, 2-(4-Fluoromethoxy-phenyl)-7-morpholin-4-yl-imidazo[1,2-a]pyridine]: 10%; for `FCCNc1ccn2cc(-c3ccc(OCF)cc3)nc2c1` [Example 50, (2-Fluoro-ethyl)-[2-(4-fluoromethoxy-phenyl)-imidazo[1,2-a]pyridin-7-yl]-amine]: 20%; for `FCCNc1ccn2cc(-c3ccc4c(c3)OCO4)nc2c1` [Example 51, (2-Benzo[1,3]dioxol-5-yl-imidazo[1,2-a]pyridin-7-yl)-(2-fluoro-ethyl)-amine]: 35%.
The same measure for `Cc1ccc(-c2cn3ccc(N(C)C)cc3n2)cc1C` [Example 52, [2-(3,4-Dimethyl-phenyl)-imidazo[1,2-a]pyridin-7-yl]-dimethyl-amine]: 27%; for `CNc1ccn2cc(-c3ccc(C)c(C)c3)nc2c1` [Example 53, [2-(3,4-Dimethyl-phenyl)-imidazo[1,2-a]pyridin-7-yl]-methyl-amine]: 25%.
The same measure for `Cc1ccc(-c2cn3ccc(N4CCC4)cc3n2)cc1` [Example 54, 7-Azetidin-1-yl-2-p-tolyl-imidazo[1,2-a]pyridine]: 30%; for `Cc1cccc(-c2cn3ccc(N4CCC4)cc3n2)c1` [Example 55, 7-Azetidin-1-yl-2-m-tolyl-imidazo[1,2-a]pyridine]: 27%.
With `CO[C@@H]1CCN(c2ccn3cc(-c4ccc(C)cc4)nc3c2)C1` [Example 56, 7-((R)-3-Methoxy-pyrrolidin-1-yl)-2-p-tolyl-imidazo[1,2-a]pyridine], the “% displacement of [3H]T808” value amounted to 28%.
As for `Cc1ccc(-c2cn3ccc(N4CCC(F)CC4)cc3n2)cc1` [Example 57, 7-(4-Fluoro-piperidin-1-yl)-2-p-tolyl-imidazo[1,2-a]pyridine], the figure is 20%; as for `FCCC1CCN(c2ccn3cc(-c4ccccc4)nc3c2)CC1` [Example 58, 7-[4-(2-Fluoro-ethyl)-piperidin-1-yl]-2-phenyl-imidazo[1,2-a]pyridine], 12%.
Regarding `CO[C@H]1CCN(c2ccn3cc(-c4ccccc4)nc3c2)C1` [Example 59, 7-((S)-3-Methoxy-pyrrolidin-1-yl)-2-phenyl-imidazo[1,2-a]pyridine], the “% displacement of [3H]T808” value turned out to be 36%.
The same measure for `COc1cccc(-c2cn3ccc(N4CCC(F)CC4)cc3n2)c1` [Example 60, 7-(4-Fluoro-piperidin-1-yl)-2-(3-methoxy-phenyl)-imidazo[1,2-a]pyridine]: 14%.
The same measure for `COc1ccc(-c2cn3ccc(N(C)CCF)cc3n2)cc1` [Example 65, (2-Fluoro-ethyl)-[2-(4-methoxy-phenyl)-imidazo[1,2-a]pyridin-7-yl]-methyl-amine]: 28%; for `CNc1ccn2cc(-c3ccc(OC)c(OC)c3)nc2c1` [Example 66, [2-(3,4-Dimethoxy-phenyl)-imidazo[1,2-a]pyridin-7-yl]-methyl-amine]: 40%; for `COc1ccc(-c2cn3ccc(NC4CC4)cc3n2)cc1` [Example 67, Cyclopropyl-[2-(4-methoxy-phenyl)-imidazo[1,2-a]pyridin-7-yl]-amine]: 34%.
The same measure for `FC1CCN(c2ccn3cc(-c4ccc5c(c4)OCO5)nc3c2)CC1` [Example 68, 2-Benzo[1,3]dioxol-5-yl-7-(4-fluoro-piperidin-1-yl)-imidazo[1,2-a]pyridine]: 25%.
As for `Cc1cccc(-c2cn3ccc(N4CCC(F)CC4)cc3n2)c1` [Example 69, 7-(4-Fluoro-piperidin-1-yl)-2-m-tolyl-imidazo[1,2-a]pyridine], the “% displacement of [3H]T808” value came out at 22%.
As for `FCOc1ccc(-c2cn3ccc(N4CCC4)cc3n2)cc1` [Example 70, 7-Azetidin-1-yl-2-(4-fluoromethoxy-phenyl)-imidazo[1,2-a]pyridine], the figure is 32%; as for `CNc1ccn2cc(-c3ccc(SC)cc3)nc2c1` [Example 71, Methyl-[2-(4-methylsulfanyl-phenyl)-imidazo[1,2-a]pyridin-7-yl]-amine], 34%.
